In ChEMBL document CHEMBL1201862, “PubChem BioAssay data set” (2004):
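All cell lines were grown in 96-well plates and treated with compound for 48 hours. Abbreviation: GI50, concentration required for 50% inhibition of growth.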 The source made the active and inactive calls. Rule as the data show it: active = GI50 up to about 1.1 µM and inactive = higher.

Columns and labels:
Experiment in all cases: NCI anticancer screen, dose series, 48 h
[1] = tested on: HT-29
[2] = tested on: HOP-62
[3] = tested on: HCC 2998
[4] = tested on: OVCAR-3
[5] = tested on: MDA-MB-435
[6] = tested on: HCT-15
[7] = tested on: SF-295
[8] = tested on: SK-MEL-28
[9] = tested on: UACC-257
[10] = tested on: SF-539
[11] = tested on: NCI-H460
[12] = tested on: MDA-MB-231
[13] = tested on: KM12
[14] = tested on: UO-31
[15] = tested on: MCF7
[16] = tested on: RPMI-8226
[17] = tested on: M14
[18] = tested on: SF-268
[19] = tested on: Hs-578T

| SMILES | GI50 [1] | GI50 [2] | GI50 [3] | GI50 [4] | GI50 [5] | GI50 [6] [µM] | GI50 [7] | GI50 [8] | GI50 [9] | GI50 [10] | GI50 [11] | GI50 [12] | GI50 [13] | GI50 [14] | GI50 [15] | GI50 [16] | GI50 [17] | GI50 [18] | GI50 [19] |
| --- | --- | --- | --- | --- | --- | --- | --- | --- | --- | --- | --- | --- | --- | --- | --- | --- | --- | --- | --- |
| O=C(CCCN1CC=C(n2c(=O)[nH]c3ccccc32)CC1)c1cccs1 | 52.4 µM (inactive) | > 100 µM (inactive) | > 100 µM (inactive) | > 100 µM (inactive) | > 100 µM (inactive) | > 100 | > 100 µM (inactive) | > 100 µM (inactive) | > 100 µM (inactive) | > 100 µM (inactive) | 63.5 µM (inactive) | > 100 µM (inactive) | > 100 µM (inactive) | > 100 µM (inactive) | 11.8 µM (inactive) | > 100 µM (inactive) | > 100 µM (inactive) | > 100 µM (inactive) | – |
| CC1CN=C(Nc2ccc(S(N)(=O)=O)cc2)S1 (configuration not stated) | > 100 µM (inactive) | > 100 µM (inactive) | > 100 µM (inactive) | > 100 µM (inactive) | – | > 100 | > 100 µM (inactive) | > 100 µM (inactive) | > 100 µM (inactive) | > 100 µM (inactive) | > 100 µM (inactive) | > 100 µM (inactive) | > 100 µM (inactive) | 39.4 µM (inactive) | 78.5 µM (inactive) | > 100 µM (inactive) | > 100 µM (inactive) | > 100 µM (inactive) | > 100 µM (inactive) |
| Cc1cc2[nH]c3c(C#N)c(-c4ccccc4)c(CN4CCOCC4)c(=O)n3c2cc1C | – | > 100 µM (inactive) | > 100 µM (inactive) | > 100 µM (inactive) | > 100 µM (inactive) | > 100 | > 100 µM (inactive) | > 100 µM (inactive) | > 100 µM (inactive) | > 100 µM (inactive) | > 100 µM (inactive) | > 100 µM (inactive) | > 100 µM (inactive) | > 100 µM (inactive) | > 100 µM (inactive) | > 100 µM (inactive) | > 100 µM (inactive) | > 100 µM (inactive) | – |
| Cc1ccc(N(C(=O)Nc2ccc(F)c(Cl)c2)C2=NCC(C)S2)cc1 (configuration not stated) | 36 µM (inactive) | > 100 µM (inactive) | – | 45.3 µM (inactive) | – | 52.7 | 49.3 µM (inactive) | 19.9 µM (inactive) | 53.2 µM (inactive) | 76.9 µM (inactive) | 45.1 µM (inactive) | > 100 µM (inactive) | 42 µM (inactive) | > 100 µM (inactive) | 8.83 µM (inactive) | > 10 µM (inactive) | – | 27.8 µM (inactive) | > 100 µM (inactive) |
| C=C(Br)C(Cl)(CBr)CCC(Br)C(C)(C)Cl (configuration not stated) | > 10 µM (inactive) | > 10 µM (inactive) | > 10 µM (inactive) | > 10 µM (inactive) | > 10 µM (inactive) | – | > 10 µM (inactive) | > 10 µM (inactive) | – | > 10 µM (inactive) | – | > 10 µM (inactive) | > 10 µM (inactive) | > 10 µM (inactive) | 7.83 µM (inactive) | 9.2 µM (inactive) | > 10 µM (inactive) | > 10 µM (inactive) | – |
| Cc1cc2nc(-c3cc(C(C)(C)C)c(O)c(C(C)(C)C)c3)[nH]c2cc1C | – | > 100 µM (inactive) | 5.81 µM (inactive) | 11.6 µM (inactive) | > 23.3 µM (inactive) | 6.55 | > 100 µM (inactive) | > 100 µM (inactive) | > 52.2 µM (inactive) | 28.1 µM (inactive) | 4.47 µM (inactive) | – | 3.39 µM (inactive) | 6.17 µM (inactive) | – | 12.8 µM (inactive) | 4.67 µM (inactive) | 9.62 µM (inactive) | 17.2 µM (inactive) |
| O/N=C1\CCc2nonc2\C1=N/Nc1ccccc1 | > 100 µM (inactive) | > 100 µM (inactive) | > 100 µM (inactive) | > 100 µM (inactive) | > 100 µM (inactive) | > 100 | > 100 µM (inactive) | > 100 µM (inactive) | > 100 µM (inactive) | > 100 µM (inactive) | > 100 µM (inactive) | > 100 µM (inactive) | > 100 µM (inactive) | 30.5 µM (inactive) | – | > 100 µM (inactive) | > 100 µM (inactive) | > 100 µM (inactive) | > 100 µM (inactive) |
| O=C1NC(Nc2ccccc2)=N/C1=C\c1c(Cl)cccc1Cl | 30.6 µM (inactive) | 28.2 µM (inactive) | 21.4 µM (inactive) | 63.4 µM (inactive) | 32.4 µM (inactive) | 49.8 | 31.3 µM (inactive) | 30.5 µM (inactive) | 23.8 µM (inactive) | 22.1 µM (inactive) | 24.9 µM (inactive) | – | 29.5 µM (inactive) | 4.42 µM (inactive) | 19.4 µM (inactive) | 33.5 µM (inactive) | 22.8 µM (inactive) | 29.3 µM (inactive) | 25.8 µM (inactive) |
| Cc1cc(S(=O)(=O)Nc2nc3ccccc3c(=O)n2N)c(S)cc1Cl | 53 µM (inactive) | 14.8 µM (inactive) | 49.3 µM (inactive) | 44.6 µM (inactive) | 32.7 µM (inactive) | 35.5 | 28.3 µM (inactive) | 67.9 µM (inactive) | 59.8 µM (inactive) | 27.6 µM (inactive) | 33.4 µM (inactive) | 32.9 µM (inactive) | 37.2 µM (inactive) | – | 71.1 µM (inactive) | 34.7 µM (inactive) | 39.6 µM (inactive) | – | – |
